The record followed here is patent US8735322B2, “Herbicides” (Syngenta Limited, priority 2008, dated 2014).

Structures are written as SMILES.

The subject of data set [1] is Alopecurus myosuroides (ALOMY). As to the kind of experiment: Example A pre-emergence herbicidal activity, glasshouse pot test. Format: in vivo. The following applies: 480 h, rate 500 g/ha, evaluated 20 days later, 100=total damage to plant, 0=no damage to plant. As for the experimental part: (§1) Seeds of a variety of test species were sown in standard soil in pots. After cultivation for one day (pre-emergence) or after 10 days cultivation (post-emergence) under controlled conditions in a glasshouse, the plants were sprayed with an aqueous spray solution derived from the formulation of the technical active ingredient in 0.6 ml acetone and 45 ml formulation solution containing 10.6% Emulsogen EL (Registry number 61791-12-6), 42.2% N-methylpyrrolidone, 42.2% dipropylene glycol monomethyl ether (Registry number 34590-94-8) and 0.2% X-77 (Registry number 11097-66-8). The test plants were then grown in a greenhouse under optimum conditions until, 15 days later for post-emergence and 20 days for pre-emergence, the test was evaluated (100=total damage to plant; 0=no damage to plant). Alopecurus myosuroides (ALOMY), Avena fatua (AVEFA), Lolium perenne (LOLPE), Setaria faberi (SETFA), Digitaria sanguinalis (DIGSA), Echinochloa crus-galli (ECHCG) Pre-Emergence Activity

Data set [2] concerns Avena fatua (AVEFA). The data set is described as above. The data set is classed as in vivo. The following applies: 480 h, rate 500 g/ha, evaluated 20 days later, 100=total damage to plant, 0=no damage to plant. The protocol:
as §1

In data set [3] the test system is Digitaria sanguinalis (DIGSA). The data set is described as above. The data set is classed as in vivo. The following applies: 480 h, rate 500 g/ha, evaluated 20 days later, 100=total damage to plant, 0=no damage to plant. The protocol:
as §1

The test system of data set [4] is Echinochloa crus-galli (ECHCG). Described as above. The following applies: 480 h, rate 500 g/ha, evaluated 20 days later, 100=total damage to plant, 0=no damage to plant. Format: in vivo. As for the experimental part: as §1
Data set [5] concerns Lolium perenne (LOLPE). Described as above. Format: in vivo. The following applies: 480 h, rate 500 g/ha, evaluated 20 days later, 100=total damage to plant, 0=no damage to plant. The protocol:
as §1

The test system of data set [6] is Setaria faberi (SETFA). Described as above. Format: in vivo. The following applies: 480 h, rate 500 g/ha, evaluated 20 days later, 100=total damage to plant, 0=no damage to plant. As for the experimental part:
as §1

The subject of data set [7] is Alopecurus myosuroides (ALOMY). As to the kind of experiment: Example A post-emergence herbicidal activity, glasshouse pot test. The following applies: 360 h, evaluated 15 days after spraying, read-out: herbicidal damage ALOMY (100=total damage to plant; 0=no damage to plant); for pest or weed control at 500 g/ha: rate 500 g/ha. Format: in vivo. The protocol:
as §1, with “Post Emergency” for “Pre-Emergence”

For data set [8], the system named is Avena fatua (AVEFA). Described as above. Format: in vivo. The following applies: 360 h, evaluated 15 days after spraying, read-out: herbicidal damage AVEFA (100=total damage to plant; 0=no damage to plant); for pest or weed control at 500 g/ha: rate 500 g/ha. The protocol:
as §1, with “Post Emergency” for “Pre-Emergence”

Data set [9] has as its system Digitaria sanguinalis (DIGSA). The description is as above. Format: in vivo. The following applies: 360 h, evaluated 15 days after spraying, read-out: herbicidal damage DIGSA (100=total damage to plant; 0=no damage to plant); for pest or weed control at 500 g/ha: rate 500 g/ha. As for the experimental part:
as §1, with “Post Emergency” for “Pre-Emergence”

Data set [10] concerns Echinochloa crus-galli (ECHCG). The data set is described as above. Format: in vivo. The following applies: 360 h, evaluated 15 days after spraying, read-out: herbicidal damage ECHCG (100=total damage to plant; 0=no damage to plant); for pest or weed control at 500 g/ha: rate 500 g/ha. The protocol: as §1, with “Post Emergency” for “Pre-Emergence”
The subject of data set [11] is Lolium perenne (LOLPE). The data set is described as above. The data set is classed as in vivo. The following applies: 360 h, evaluated 15 days after spraying, read-out: herbicidal damage LOLPE (100=total damage to plant; 0=no damage to plant); for pest or weed control at 500 g/ha: rate 500 g/ha. As for the experimental part:
as §1, with “Post Emergency” for “Pre-Emergence”

In data set [12] the test system is Setaria faberi (SETFA). The data set is described as above. Format: in vivo. The following applies: 360 h, evaluated 15 days after spraying, read-out: herbicidal damage SETFA (100=total damage to plant; 0=no damage to plant); for pest or weed control at 500 g/ha: rate 500 g/ha. As for the experimental part: as §1, with “Post Emergency” for “Pre-Emergence”
In data set [13] the test system is Alopecurus myosuroides (ALOMY). Put plainly: Example B pre-emergence herbicidal activity, glasshouse pot test. The following applies: 312 h, rate 1000 g/ha, evaluated after 13 days, read-out: herbicidal damage ALOMY (100=total damage to plant; 0=no damage to plant). The data set is classed as in vivo. A digest of the protocol: (§2)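 Pre-emergence pot test: sow in standard soil; spray after 1 day cultivation; acetone/water (50:50), 0.5% Tween 20 vehicle; glasshouse 24/16 °C, 14 h light, 65% RH; watered 2×/day; visual score at 13 days, 0–100.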

Data set [14] deals with Amaranthus retroflexus (AMARE). The description is as above. Format: in vivo. The following applies: 312 h, rate 1000 g/ha, evaluated after 13 days, read-out: herbicidal damage AMARE (100=total damage to plant; 0=no damage to plant). A digest of the protocol:
as §2

In data set [15] the test system is Avena fatua (AVEFA). The description is as above. The following applies: 312 h, rate 1000 g/ha, evaluated after 13 days, read-out: herbicidal damage AVEFA (100=total damage to plant; 0=no damage to plant). Format: in vivo. In a few lines:
as §2

Data set [16] has as its system Echinochloa crus-galli (ECHCG). The data set is described as above. Format: in vivo. The following applies: 312 h, rate 1000 g/ha, evaluated after 13 days, read-out: herbicidal damage ECHCG (100=total damage to plant; 0=no damage to plant). In a few lines:
as §2

Data set [17] concerns Setaria faberi (SETFA). The data set is described as above. Format: in vivo. The following applies: 312 h, rate 1000 g/ha, evaluated after 13 days, read-out: herbicidal damage SETFA (100=total damage to plant; 0=no damage to plant). A digest of the protocol: as §2
The test system of data set [18] is Solanum nigrum (SOLNI). Described as above. Format: in vivo. The following applies: 312 h, rate 1000 g/ha, evaluated after 13 days, read-out: herbicidal damage SOLNI (100=total damage to plant; 0=no damage to plant). In a few lines:
as §2

Data set [19] concerns Alopecurus myosuroides (ALOMY). Put plainly: Example B post-emergence herbicidal activity, glasshouse pot test. The data set is classed as in vivo. The following applies: 312 h, rate 1000 g/ha, evaluated after 13 days, read-out: herbicidal damage ALOMY (100=total damage to plant; 0=no damage to plant). In a few lines:
(§3)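 Pot-grown plants sprayed post-emergence after 8 days' growth with aqueous solution from acetone/water (50:50) formulation containing 0.5% Tween 20. Glasshouse at 24/16 °C day/night, 14 h light, 65% humidity. Damage scored visually after 13 days (0 = none, 100 = total).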

Data set [20] relates to Amaranthus retroflexus (AMARE). Described as above. The data set is classed as in vivo. The following applies: 312 h, rate 1000 g/ha, evaluated after 13 days, read-out: herbicidal damage AMARE (100=total damage to plant; 0=no damage to plant). In a few lines: as §3
For data set [21], the system named is Avena fatua (AVEFA). Described as above. The data set is classed as in vivo. The following applies: 312 h, rate 1000 g/ha, evaluated after 13 days, read-out: herbicidal damage AVEFA (100=total damage to plant; 0=no damage to plant). A digest of the protocol: as §3
Data set [22] deals with Echinochloa crus-galli (ECHCG). Described as above. Format: in vivo. The following applies: 312 h, rate 1000 g/ha, evaluated after 13 days, read-out: herbicidal damage ECHCG (100=total damage to plant; 0=no damage to plant). In a few lines:
as §3

The test system of data set [23] is Setaria faberi (SETFA). The data set is described as above. The data set is classed as in vivo. The following applies: 312 h, rate 1000 g/ha, evaluated after 13 days, read-out: herbicidal damage SETFA (100=total damage to plant; 0=no damage to plant). In a few lines: as §3
For data set [24], the system named is Solanum nigrum (SOLNI). Described as above. Format: in vivo. The following applies: 312 h, rate 1000 g/ha, evaluated after 13 days, read-out: herbicidal damage SOLNI (100=total damage to plant; 0=no damage to plant). A digest of the protocol:
as §3

In the case of `CCc1ccccc1C1=C(O)CC(CC2CCOCC2)CC1=O` (centres unmarked) [Compound A-31], the pest or weed control at 500 g/ha in [1] was 60%; in data set [2] it was 50%; in data set [3], 100%; in data set [4], 70%; in [5], 40%; in data set [6] it was 100%. Moreover, the pest or weed control at 125 g/ha in [7] (rate 125 g/ha) was 60%; in data set [8] (rate 125 g/ha), 60%; in data set [9] (rate 125 g/ha), 30%; in [10] (rate 125 g/ha), 50%; in data set [11] (rate 125 g/ha), 60%; in [12] (rate 125 g/ha), 40%. Besides, the pest or weed control at 1000 g/ha in data set [13] came out at 100%; in data set [14], 0%; in data set [15], 40%; in [16], 100%; in data set [17], 100%; in data set [18], 0%. The pest or weed control at 1000 g/ha was found to be 100% in [19]; 0% in [20]; 90% in data set [21]; 100% in data set [22]; 100% in [23]; 0% in [24].

Regarding `Cc1cc(C)c(C2=C(O)CC(CC3CCOC3)CC2=O)c(C)c1` (centres unmarked) [Compound A-1, 2-(2,4,6-trimethylphenyl)-5-(tetrahydrofuran-3-ylmethyl)cyclohexane-1,3-dione], the melting point lay in the range of 62 to 64 °C. The molecule further registered a pest or weed control at 500 g/ha in data set [1] of 70%. The pest or weed control at 500 g/ha in data set [2] was 40%. Besides, the pest or weed control at 500 g/ha in data set [3] turned out to be 100%. Moreover, the pest or weed control at 500 g/ha in data set [4] was found to be 50%. Moreover, the pest or weed control at 500 g/ha in [5] was 80%. Further, the pest or weed control at 500 g/ha in data set [6] is 90%. For the same molecule, the pest or weed control at 500 g/ha in [7] came out at 70%. In data set [8], the pest or weed control at 500 g/ha came out at 80%. In data set [9], the pest or weed control at 500 g/ha was 100%. The pest or weed control at 500 g/ha in [10] was found to be 90%. Also, the pest or weed control at 500 g/ha in data set [11] was 70%. Moreover, in data set [12], the pest or weed control at 500 g/ha is 100%.

`Cc1cc(C)c(C2=C(OC(=O)C(C)(C)C)CC(CC3CCOC3)CC2=O)c(C)c1` (centres unmarked) [Compound B-1, 2,2-dimethylpropionic acid 3-oxo-5-(tetrahydrofuran-3-ylmethyl)-2-(2,4,6-trimethylphenyl)cyclohex-1-enyl Ester] came in with a melting point of 108 to 110 °C. Besides, in data set [1], the pest or weed control at 500 g/ha came to 90%. The molecule also showed a pest or weed control at 500 g/ha in [2] of 50%. This molecule also returned a pest or weed control at 500 g/ha in data set [3] of 100%. In [4], the pest or weed control at 500 g/ha was 100%. Moreover, in data set [5], the pest or weed control at 500 g/ha worked out at 90%. This molecule displayed a pest or weed control at 500 g/ha in data set [6] of 80%. In data set [7], the pest or weed control at 500 g/ha amounted to 50%. Also, the pest or weed control at 500 g/ha in data set [8] is 0%. In addition, the pest or weed control at 500 g/ha in [9] is 90%. The pest or weed control at 500 g/ha in [10] amounted to 70%. Further, the pest or weed control at 500 g/ha in data set [11] was 60%. Further, in data set [12], the pest or weed control at 500 g/ha came to 80%.
